The values below come from BindingDB's records for doi:10.1021/np50113a004 (1994).

A short description of assay [1]: Inhibition of LFA1 expressed in human JY cells interaction with ICAM1-IG expressed in human HeLa cell monolayer after 45 mins by cell adhesion assay.
The next assay addresses T1, Integrin alpha-L (Homo sapiens, UniProt P20701).
T1 sequence (P20701 whole entry): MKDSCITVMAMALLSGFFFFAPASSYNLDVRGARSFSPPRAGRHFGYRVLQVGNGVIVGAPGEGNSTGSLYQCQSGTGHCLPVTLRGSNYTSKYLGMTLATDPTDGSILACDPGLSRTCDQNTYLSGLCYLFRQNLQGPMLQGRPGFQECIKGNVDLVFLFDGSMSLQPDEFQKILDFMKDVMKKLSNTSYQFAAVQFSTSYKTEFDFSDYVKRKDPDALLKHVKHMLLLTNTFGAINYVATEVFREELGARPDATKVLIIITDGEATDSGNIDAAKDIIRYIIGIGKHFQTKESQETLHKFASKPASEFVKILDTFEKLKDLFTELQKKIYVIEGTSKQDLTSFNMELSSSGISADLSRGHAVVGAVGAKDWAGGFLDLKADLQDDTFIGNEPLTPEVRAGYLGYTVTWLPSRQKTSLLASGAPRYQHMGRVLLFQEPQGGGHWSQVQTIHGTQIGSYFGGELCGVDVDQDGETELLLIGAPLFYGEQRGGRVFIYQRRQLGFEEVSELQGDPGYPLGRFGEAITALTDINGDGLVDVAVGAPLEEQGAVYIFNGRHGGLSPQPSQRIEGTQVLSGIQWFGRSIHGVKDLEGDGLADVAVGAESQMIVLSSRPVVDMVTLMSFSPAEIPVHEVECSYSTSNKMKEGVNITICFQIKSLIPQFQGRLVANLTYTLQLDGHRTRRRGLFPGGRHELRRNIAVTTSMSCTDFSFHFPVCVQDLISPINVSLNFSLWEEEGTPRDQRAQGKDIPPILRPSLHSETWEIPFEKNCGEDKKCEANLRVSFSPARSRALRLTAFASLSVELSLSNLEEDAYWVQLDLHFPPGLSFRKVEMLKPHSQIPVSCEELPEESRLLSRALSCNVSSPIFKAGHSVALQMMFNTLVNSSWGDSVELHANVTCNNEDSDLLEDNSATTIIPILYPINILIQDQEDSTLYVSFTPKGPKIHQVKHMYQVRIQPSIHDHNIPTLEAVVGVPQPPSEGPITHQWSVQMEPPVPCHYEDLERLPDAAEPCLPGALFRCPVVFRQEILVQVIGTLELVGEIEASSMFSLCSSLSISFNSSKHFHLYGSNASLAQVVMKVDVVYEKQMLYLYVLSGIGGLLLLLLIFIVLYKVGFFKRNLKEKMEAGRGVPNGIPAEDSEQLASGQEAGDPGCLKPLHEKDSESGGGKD
The assay is described as follows: Inhibition of LFA1 expressed in human JY cells interaction with ICAM1-IG expressed in human HeLa cell monolayer after 45 mins by cell adhesion assay.

As for `CC(C)(O)/C=C/C(=O)[C@@](C)(O)[C@H]1[C@H](O)C[C@@]2(C)[C@@H]3CC=C4[C@@H](C[C@H](O)C(=O)C4(C)C)[C@]3(C)C(=O)C[C@]12C`, the IC50 (in general, the concentration that inhibits the measured activity by half) in assay [1] is 1.36 µM. `CC(C)(O)CCC(=O)[C@@](C)(O)C1[C@H](O)C[C@@]2(C)[C@@H]3CC=C4C(CC(=O)C(=O)C4(C)C)[C@]3(C)C(=O)C[C@]12C` (stereo partly drawn) [Cucurbitacin L] came in with an IC50 on Integrin alpha-L above 50 µM.

As for `CC(C)(O)C=CC(=O)[C@](C)(O)[C@H]1[C@H](O)C[C@@]2(C)[C@@H]3CC=C4[C@@H](CC(=O)C(=O)C4(C)C)[C@]3(C)C(=O)C[C@]12C` [NSC-521777], on Integrin alpha-L, inhibition was half-maximal at 0.95 µM (IC50).
